Measured values: patent US20100204138A1, “USE OF TRP6-T[…] D-LEU6-[…] […] AGENTS” (priority 2007, published 2010)

What was measured:
[1] = system: hepatitis B virus (HBV) ayw strain; assay: HBV experimental assay in HepG2-2.2.15 cells (TaqMan PCR of secreted HBV DNA); type: cell-based; details: 10 micrograms per ml, six days
HCMV strain AD169 = assay: HCMV plaque formation assay in MRC-5 cells; type: cell-based; details: 10 micrograms per ml, 7-10 days
Streptococcus pneumoniae = Streptococcus pneumoniae growth assay; type: cell-based; details: 10 micrograms per ml; 5×10^5 CFU/mL
A549 cells = assay: Apoptosis prevention assay (C2 ceramide, Annexin-5); type: cell-based, human; details: 10 micrograms per ml, 30 min pretreatment
[2] = system: Ovalbumin-restimulated spleen cells of Balb/c mice; assay: Th1/Th2 cytokine profiling assay; type: cell-based, mouse; details: 10 micrograms per ml; murine spleen cells; Ovalbumin restimulation, 72 hours
[3] = system: Primary Human endothelial cells (HUVEC); assay: Endothelial cell migration assay; type: cell-based; details: 10 micrograms per ml, 22 hours
Method: Thereafter, designated concentration of testing peptides—10 micrograms per ml—was added in duplicate wells.

HUVEC = assay: Endothelial tube formation assay; type: cell-based, human; details: 10 micrograms per ml, 20 hours
Description: Positive control was vehicle only.

## Pyr-His-Trp-Ser-Tyr-D-His(Bzl)-D-Leu-Arg-Pro-NHEt [Peptide 2]
[1]
  inhibition of HBV replication as compared to the virus control infection: 61.6%
HCMV strain AD169
  inhibition of HCMV plaque formation as compared to the virus control: did not inhibit
Streptococcus pneumoniae
  inhibition of the growth of Streptococcus pneumoniae: 100%
A549 cells
  reduction of the ceramide-induced apoptosis on human lung cells: did not reduce
[2]
  change of the production of IL-5: did not significantly change
  production of IFN-γ, suppressed by: 30.8%
  production of IL-2, induced by: 55.8%
  production of IL-4, induced/increased by: 135.7%
  production of TNF-alpha, induced by: did not significantly change
[3]
  inhibition of the migration of human endothelial cells: 8%
HUVEC
  inhibition of the tube formation of human endothelial cells: 4%

## Pyr-His-Trp-Ser-Tyr-Trp-Leu-Arg-Pro-Gly-NH2 (HWSYWLRPG; N-terminal pyroglutamate; C-terminal amide; printed: His-Trp-Ser-Tyr-Trp-Leu-Arg-Pro-Gly-) [Peptide 1, LHRH family peptide, commercially available]
[1]
  inhibition of HBV replication as compared to the virus control infection: 23%
HCMV strain AD169
  inhibition of HCMV plaque formation as compared to the virus control: did not inhibit
Streptococcus pneumoniae
  inhibition of the growth of Streptococcus pneumoniae: 100%
A549 cells
  reduction of the ceramide-induced apoptosis on human lung cells: 22.65%
[2]
  change of the production of IL-5: did not significantly change
  production of IFN-γ, induced by: 40.2%
  production of IL-2, induced by: 47.1%
  production of IL-4, induced/increased by: 70.6%
  production of TNF-alpha, induced by: 45.1%
[3]
  inhibition of the migration of human endothelial cells: 3%
HUVEC
  inhibition of the tube formation of human endothelial cells: 15%
